Assay results reported in patent US5061729A, “Pharmaceutical composition and process for preparing the same” (priority 1988, dated 1991).
Where two headings read alike, the source gives them in different places.

Columns and labels:
[1] = system: pathogenic micro-organisms occurring in the discharges of patients suffering from chronic otitis; test: treatment of the ear discharges by antibacterial agents (sensitivity, Table 2); format: cell-based; settings: for A = therapeutically active (sensitive) / M = moderately active / R = inactive (resistant): number of cases of 510 examinations; for Act. = activity %: share of active cases, 510 examinations
Experimental: In the Department for Otorhinolaryngology of the Medical University of Debrecen, adult and child patients were examined to identify the types of pathogenic micro-organisms occurring in the discharges of patients suffering from chronic otitis (otitis media chronica); the discharges of 510 patients were analyzed for the bacterial infection.
Symbols used in Table 2:
0 = number of the cases not examined
A = therapeutically active (sensitive)

[2] = cited from earlier work
[3] = mucolytic (viscosity-reducing) effect of sulfhydryl compounds; settings: comparison of compounds containing a sulfhydryl group
[4] = single-component treatment: aqueous solutions of sulfhydryl compounds; format: in vivo, patients; settings: acetylcysteine solution
[5] = dogs; oral administration; cited from earlier work
[6] = rats; oral administration; cited from earlier work
[7] = mice; oral administration; cited from earlier work
[8] = system: several gram-positive and gram-negative bacteria such as Pseudomonas aeruginosa; settings: in vitro conditions; M. F. Parry et al.; cited from earlier work
[9] = single-component treatment: 1% tobramycin solution in chronic mesotympanic otitis; format: in vivo, patients; settings: 1% solution
Source text: (§1) Several compositions according to the invention were also studied with omitting one active ingredient of the composition in order to support the progressive character of the multi-active-component type composition according to the invention. These experiments led to the following results.

[10] = single-component treatment: 1% tobramycin solution in external otitis; format: in vivo, patients; settings: 1% solution
Source text: as §1

[11] = with sulfhydryl-containing compounds, particularly acetylcysteine

Molecule	A = therapeutically active (sensitive) [1]	M = moderately active [1]	R = inactive (resistant) [1]	Act. = activity % [1]	also measured
CC1(C)S[C@@H]2[C@H](NC(=O)[C@H](N)c3ccccc3)C(=O)N2[C@H]1C(=O)O [Ampicillin]	72	11	120	40.8%	–
CC1(C)S[C@@H]2[C@H](NC(=O)C(C(=O)O)c3ccccc3)C(=O)N2[C@H]1C(=O)O (stereo partly shown) [Carbenicillin]	137	22	91	63.6%	–
O=C(Cc1cccs1)N[C@@H]1C(=O)N2C(C(=O)[O-])=C(C[n+]3ccccc3)CS[C@H]12 [Cephaloridin]	170	27	182	51.9%	–
O=C(N[C@H](CO)[C@H](O)c1ccc([N+](=O)[O-])cc1)C(Cl)Cl [Chloramphenicol]	106	11	197	37.2%	–
CC[C@H]1OC(=O)[C@H](C)[C@@H](O[C@H]2C[C@@](C)(OC)[C@@H](O)[C@H](C)O2)[C@H](C)[C@@H](O[C@@H]2O[C@H](C)C[C@H](N(C)C)[C@H]2O)[C@](C)(O)C[C@@H](C)C(=O)[C@H](C)[C@@H](O)[C@]1(C)O [Erythromycin]	113	6	208	36.4%	influence of sulfhydryl-containing compounds on absorption from the stomach ([2]; in vivo): not disadvantageously influenced by the sulfhydryl-containing compounds
COc1cccc(OC)c1C(=O)N[C@@H]1C(=O)N2[C@@H]1SC(C)(C)[C@@H]2C(=O)O [Meticillin]	146	27	95	64.6%	–
CC(=O)N[C@@H](CS)C(=O)O [N-acetyl-L-cysteine]	–	–	–	–	mucolytic effect [3]: most useful mucolytic agent; character of the discharge under treatment [4]: rather took the form of a precipitate; LD50 [5]: 1000 mg/kg of body-weight; LD50 [6]: 6000 mg/kg of body-weight; LD50 [7]: 3000 mg/kg of body-weight; synergistic effect with several antibiotics [8]: shows a synergistic effect with several antibiotics
CO[C@H]1C[C@H](O[C@H]2[C@H](C)[C@@H](O[C@@H]3O[C@H](C)C[C@H](N(C)C)[C@H]3O)[C@@H](C)C[C@@]3(CO3)C(=O)[C@H](C)[C@@H](O)[C@@H](C)[C@@H](C)OC(=O)[C@@H]2C)O[C@@H](C)[C@@H]1O [Oleandomycin]	114	4	179	39.7%	–
Cc1onc(-c2ccccc2)c1C(=O)N[C@@H]1C(=O)N2[C@@H]1SC(C)(C)[C@@H]2C(=O)O [Oxacillin]	191	13	77	72.6%	–
CC1(C)S[C@@H]2[C@H](NC(=O)Cc3ccccc3)C(=O)N2[C@H]1C(=O)O [Penicillin]	67	22	218	29.4%	–
[H]/N=C(/N)N[C@H]1[C@H](O)[C@@H](O)[C@H](O[C@@H]2O[C@@H](C)[C@](O)(C=O)[C@H]2O[C@@H]2O[C@@H](CO)[C@H](O)[C@@H](O)[C@@H]2NC)[C@@H](N/C(N)=N\[H])[C@@H]1O [Streptomycin]	39	42	87	48.2%	–
CN(C)[C@@H]1C(=O)C(C(N)=O)=C(O)[C@@]2(O)C(=O)C3=C(O)c4c(O)cccc4[C@@](C)(O)[C@H]3C[C@@H]12 [Tetracyclin]	79	16	279	25.4%	–
NC[C@H]1O[C@H](O[C@H]2[C@H](O)[C@@H](O[C@H]3O[C@H](CO)[C@@H](O)[C@H](N)[C@H]3O)[C@H](N)C[C@@H]2N)[C@H](N)C[C@@H]1O [Tobramycin, tobramycin]	116	86	61	79.2%	substantial improvement of the pathological processes, % of patients [9]: about 60%; substantial improvement, % of patients [10]: ≤ 40%; influence of sulfhydryl-containing compounds on absorption from the stomach ([2]; in vivo): not disadvantageously influenced by the sulfhydryl-containing compounds
CC1(C)S[C@@H]2[C@H](NC(=O)[C@H](N)c3ccc(O)cc3)C(=O)N2[C@H]1C(=O)O [amoxicillin]	–	–	–	–	influence of sulfhydryl-containing compounds on absorption from the stomach [2, 11]: not disadvantageously influenced by the sulfhydryl-containing compounds
N[C@@H](CSCC(=O)O)C(=O)O [carbocysteine]	–	–	–	–	mucolytic effect [3]: mucolytic effect can also be shown
O=C(O)C(S)C(S)C(=O)O (stereo not shown) [dimercaptosuccinate]	–	–	–	–	mucolytic effect [3]: mucolytic effect can also be shown
CCN(CC)C(=S)SSC(=S)N(CC)CC [disulfiram]	–	–	–	–	mucolytic effect [3]: mucolytic effect can also be shown
O[C@H](CS)[C@@H](O)CS [dithioerythritol]	–	–	–	–	mucolytic effect [3]: mucolytic effect can also be shown
C[C@H]1c2cccc(O)c2C(O)=C2C(=O)[C@]3(O)C(O)=C(C(N)=O)C(=O)[C@@H](N(C)C)[C@@H]3[C@@H](O)[C@@H]21 [doxycyclin]	–	–	–	–	influence of sulfhydryl-containing compounds on absorption from the stomach [2, 11]: not disadvantageously influenced by the sulfhydryl-containing compounds
N[C@@H](CCC(=O)N[C@@H](CS)C(=O)NCC(=O)O)C(=O)O [glutathione]	–	–	–	–	mucolytic effect [3]: mucolytic effect can also be shown
CC(C)(CO)[C@@H](O)C(=O)NCCC(=O)NCCS [pantetheine]	–	–	–	–	mucolytic effect [3]: mucolytic effect can also be shown
Gentamycin	65	72	118	53.7%	–
Polymyxin B	69	8	103	42.7%	–
neomycin	27	13	5	88.9%	influence of sulfhydryl-containing compounds on absorption from the stomach ([2]; in vivo): not disadvantageously influenced by the sulfhydryl-containing compounds
